Measurements as given in patent publication US20130274246A1, “Therapeutic Treatment for Metabolic Syndrome, Type 2 Diabetes, Obesity, or Prediabetes” (priority 2010, published 2013).

Assays:
Assay type in all cases: in vivo
[1] = tested on: obese, diabetic female ob/ob mice; test: Fusaric acid and SKF 38393, alone and combined, 14 days in ob/ob mice (Example 4); conditions: fusaric acid 15 mg/kg, SKF 38393 10 mg/kg, once daily 14 days, day 15, controls 380+/−30
Description: Fusaric acid is a dopamine beta hydroxylase inhibitor that reduces noradrenaline synthesis in noradrenergic neurons. It is not present in dopaminergic neurons and thus exerts no such effect there. SKF38393 is a post-synaptic dopamine D1 receptor agonist with no marked influence on noradrenergic neurons. A study was conducted to determine the interactive effects of fusaric acid plus SKF 38393 on body fat store levels, and blood glucose and plasma triglyceride levels in ob/ob mice. The ob/ob mouse is hyperphagic, obese, insulin resistant, diabeteic and dyslipidemic due to the absence of functional leptin as a result of a mutation in this gene.
Obese, diabetic female ob/ob mice (body weight of approximately 33 g) maintained on 14 hour daily photoperiods, housed one per cage and allowed to feed ad libitum were randomized to once daily treatment with either fusaric acid (15 mg/kg; n=6-8), SKF 38393 (10 mg/kg; n=6-8), both fusaric acid (15 mg/kg) and SKF 38393 (10 mg/kg) (n=6-8), or vehicle (control group; n=6-8) for a 14 day period. On the fifteenth day of the study and approximately 24 hours after the final treatment animals were sacrificed and blood samples were obtained for the analyses of blood glucose, plasma free fatty acid and triglyceride levels. […]

[2] = tested on: high fat fed, hypertensive SHR rats; test: Quinelorane and fusaric acid, alone and combined, in high fat fed hypertensive SHR rats (Example 5); conditions: SHR rats on high fat diet, Q 0.075 mg/kg, FA 12.5 mg/kg
Description: Male SHR rats were maintained on 14 hour daily photoperiods and fed a high fat diet (60% of energy from fat; 5.24 kcal/gram weight) for 3 weeks and then divided into different groups and treated with either quinelorane (Q; a dopamine D2/D3 mixed receptor agonist) (0.075 mg/kg), fusaric acid (FA; a dopamine beta hydroxylase inhibitor) (12.5 mg/kg), quinelorane (0.075 mg/kg) plus FA (Q/FA) (12.5 mg/kg), or vehicle at 13 hours after light onset for 17 days. The doses of Q and FA were set at less than half maximal to effect central dopamine receptor binding functions and dopamine beta hydroxylase activity, respectively. […] Blood pressure measurements were taken at 14 days of treatment and animals were sacrificed at 18 days of treatment for analyses of body fat and humoral factors and metabolites. […] Respecting blood glucose, although both Q and FA reduced glucose level relative to vehicle, only the Q/FA regimen normalized blood glucose in these animals relative to vehicle (FIG. 6).

[3] = tested on: female mice fed a high fat diet for 20 weeks; test: GBR 12909 and FA, alone and combined, 14 days in high fat diet mice (Example 9); conditions: GBR 12909 10 mg/kg, FA 15 mg/kg, FIG. 11
Description: Female mice at 4 weeks of age were fed a high fat diet for 20 weeks to induce diabetes and insulin resistance and continued on such diet while treated for 14 days with either GBR 12909 (10 mg/kg), FA (15 mg/kg), GBR 12909 (10 mg/kg) plus FA (15 mg/kg), or vehicle and sacrified after 14 days of treatment for the analyses of body fat, blood glucose, plasma insulin, and plasma nitric oxide levels. The composite of body fat store level, blood glucose and plasma insulin was reduced the greatest in the GBR/FA group and by a magnitude more than additive of the individual GBR and FA groups combined. Only the GBR/FA group normalized plasma insulin levels. […] This effect was not observed with either GBR or FA treatments alone. Also, there was no desensitization to this dopamine enhancing treatment on this body weight reduction effect as is observed with dopamine D2 receptor agonists (FIG. 15).

[4] = tested on: male mice fed a high fat diet; test: GBR versus bupropion in high fat diet mice (Example 11)
Description: The effect of increasing central dopamine neuronal activity versus increasing central dopamine plus norepinephirne neuronal activity on body fat, blood glucose, plasma insulin, and insulin sensitivity was studied in male mice fed a high fat diet from 4 weeks of age until 24 weeks of age. These mice were maintained on this high fat diet while treated with either GBR (20 mg/kg) (a selective dopamine reuptake inhibitor) or bupropion (20 mg/kg) (a dopamine and norepinpehrine reuptake inhibitor) at doses that approximate their 50% maximal effective dose for these functions in vivo in rodents.

For `Cl.Oc1cc2c(cc1O)C(c1ccccc1)CNCC2` (stereo not drawn) [SKF 38393, 1-phenyl-7,8-dihydroxy-2,3,4,5-tetrahydro-1H-3-benzazepine hydrochloride], the blood glucose [1] was 290 ± 55 mg/dL.

`CCCCc1ccc(C(=O)O)nc1` [fusaric acid, 5-butyl-2-pyridinecarboxylic acid] was tested, and the “plasma C-reactive protein levels” value ([2]; 17 days, relative to vehicle) was “no significant effect”.

With `CCCN1CCC[C@@H]2Cc3nc(N)ncc3C[C@H]21` [Q] the “change from baseline body weight (weight loss)” value ([2]; at 13 hours after light onset for 17 days, FIGS. 1 and 2) was “regained weight loss to baseline values by treatment end”.

`Cl.Cl.Fc1ccc(C(OCCN2CCN(CCCc3ccccc3)CC2)c2ccc(F)cc2)cc1` [GBR 12909, 1-(2-[bis(4-Fluorophenyl)methoxy]ethyl)-4-(3-phenylpropyl)piperazine dihydrochloride] was tested, and the blood glucose level [3] was “no significant effect”, the reducing plasma insulin ([4]; GBR 20 mg/kg versus bupropion 20 mg/kg, equal dose) was “much more effective” and the body fat ([4]; GBR 20 mg/kg, compared to vehicle and bupropion 20 mg/kg, FIG. 17) was “significantly reduced”.
